Experimental data as given in paper PMC5855545, “Role of Disulfide Bonds in Activity and Stability of Tigerinin-1R” (International Journal of Molecular Sciences, 2018).
Entries after “also recorded” stand apart in the source; their conditions may differ.

Legend:
[1] = test system: INS-1 cells; assay: Protection against palmitic acid-induced apoptosis (MTT viability); assay type: cell-based, rat; settings: 0.5 mM PA, 24 h
Experimental: Solutions of free fatty acids (FFAs) were prepared. Briefly, 100 mM palmitic acid (PA) stocks (Sigma, St. Louis, MO, USA) were prepared in 0.1 M NaOH at 70 °C. Ten percent (w/v) FFA-free BSA (Roche, Mannheim, Germany) solution was prepared in PBS buffer. A 5 mM FFA/10% BSA solution was prepared by mixing 50 μL FFA to 950 μL 10% BSA in a 60 °C water bath. The above solution was then cooled to room temperature, diluted in RPMI 1640 to 0.5 mM and filtered. Cells were added into 96-well plates (5 × 10^3 cells/well). Complete medium was withdrawn after overnight incubation at 37 °C. One hundred microliters of different peptides corresponding to a serial dilution series (concentrations 10^−9, 10^−7, 10^−5 M) diluted with medium containing 0.5 mM PA, was added for another 24 h. Meanwhile, incubation in fresh medium, with or without PA, were set as positive and negative controls, respectively. At the end of incubation, 20 μL of MTT solution (5 mg/mL in PBS) was added to each well and further incubated at 37 °C for 4 h. Cell viability was determined by dissolving the crystallized MTT with dimethyl sulfoxide (150 μL/well).

[2] = test system: INS-1 cells; assay: Insulin-releasing activity in vitro (rat insulin ELISA); assay type: cell-based; settings: 2.8 mM glucose; for insulin release at 10^−5 M compared with tigerinin-1R: 10^−5 M peptide, 1 h in KRB buffer at 37 °C, triplicate
Experimental: INS-1 cells were harvested with trypsin/EDTA, seeded into 6-well plates (3–5 × 10^5 cells/well), and allowed to attach overnight. Prior to the test, cells were preincubated in 1 mL Krebs-Ringer bicarbonate (KRB) buffer without glucose (115 mMNaCl, 4.7 mMKCl, 1.28 mM CaCl2,1.2 mM KH2PO4, 1.2 mM MgSO4, 10 mM NaHCO3, and 1 g/L BSA, pH 7.4) at 37 °C for 45 min. Cells were then incubated in the absence or presence of peptides for 1 h, using the same buffer with 2.8 mM glucose. The insulin supernatants were collected, and subsequently analyzed using ultrasensitive rat insulin ELISA kits (Mercodia, Sweden). The assay was repeated in triplicate.

[3] = Reversed-phase HPLC retention time (relative hydrophobicity); assay type: physicochemical; settings: RP-HPLC at 25 °C; Zorbax 300 SB-C8 150 × 4.6 mm, linear AB gradient 1% acetonitrile/min, 1 mL/min, A 0.1% aqueous TFA pH 2, B 0.1% TFA in acetonitrile
[4] = Peptide degradation assay in 10% fetal bovine serum; assay type: in vitro ADME; settings: 200 μM peptide in PBS, 37 °C
Experimental: Peptides dissolved in PBS to a final concentration of 200 μM were incubated with 10% fetal bovine serum at 37 °C. At different time points (0, 60, and 120 min), 20 μL peptide samples were taken and diluted with an equal volume of 0.1% aqueous trifluoroacetic acid (TFA). The samples were then analyzed by RP-HPLC. The experiment was performed on a Shimadzu HPLC system with a Zorbax 300 SB-C8 column (150 × 4.6 mm I.D.; 5 µm particle size, 300 Å pore size; Agilent Technologies, Palo Alto, CA, USA) using a linear AB gradient (1% acetonitrile/min) and a flow rate of 1 mL/min, where solvent A was 0.1% aqueous TFA, pH 2, and solvent B was 0.1% TFA in acetonitrile at 25 °C.

[5] = test system: Kunming male mice; assay: Glucose tolerance in vivo in overnight-fasted mice; set-up: species or system mouse; settings: n = 6
Experimental: Kunming male mice were housed individually in an air-conditioned room (22 ± 2 °C) with a 12 h light/12 h dark cycle, and were handled in accordance with the Guide for Care and Use of Laboratory Animals in China and approved by the animal ethics committee of Jilin University (Approval No. JLUSWLL003, Jilin, China; dated on 10 May 2017). Drinking water and standard laboratory chow were freely available. No adverse effects were observed following administration of the peptides. Age-matched groups (n = 6) of overnight-fasted mice received an intraperitoneal injection of either glucose (18 mmol/kg body weight), tigerinin-1R (75 nmol/kg body weight), or [C11K]tigerinin-1R (75 nmol/kg body weight) individually as control groups, and glucose in combination with tigerinin-1R or glucose in combination with [C11K]tigerinin-1R as experimental groups, respectively. All solutions were administered in 0.9% NaCl (5 mL/kg body weight). Blood samples were collected from the cut tip of the tail vein of conscious mice, before injection and at 15, 30, 60, and 120 min immediately after injection, and glucose was measured using a Sannuo stable blood glucose meter (Changsha, China) using corresponding test strips.

[6] = test system: bacteria; settings: cited from earlier work
Source text: (§1) Tigerinin-1R (Arg–Val–Cys–Ser–Ala–Ile–Pro–Leu–Pro–Ile–Cys–His–NH2) is a cationic peptide containing a disulfide bond that is isolated from the skin secretions of Hoplobatrachus ugulosus. […] In vivo studies have shown that administration of tigerinin-1R or some of its analog ...

[7] = test system: high-fat fed mice; settings: administration to high-fat fed mice; cited from earlier work
Source text: as §1

[8] = test system: INS-1 cells; assay: Measurement of intracellular Ca2+ (Fluo-3 AM, confocal microscopy); assay type: cell-based, rat; settings: 10^−5 M peptide, 2.8 mM glucose; less than 30 mM KCl, significantly greater than glucose alone
Experimental: INS-1 cells (2 × 10^5) were cultured in glass bottom dishes (NEST, Wuxi, China). Following overnight culture, the cells were washed with KRB buffer three times, and then incubated with 5 μM fluorescent Ca^2+ probe Fluo-3 AM solution (Solarbio, Beijng, China). After loading for 30 min and washing three times with KRB buffer, cells were incubated for 15 min in the absence of Fluo-3 AM. KRB buffer supplemented with 2.8 mM glucose containing 10^−5 M peptide was then added. Images of cells were obtained by laser scanning confocal microscope (LSM710, Carl Zeiss, Oberkochen, Germany). The fluorescence was excited at 480 nm at 4 s intervals, and detected at 515 nm. Incubations in the presence of 2.8 mM glucose alone (negative control) or extra 30 mM KCl (positive control) were also carried out individually.

CCCCCCCCCCCCCCCC(=O)O [PA, palmitic acid]
viability of INS-1 cells with PA (positive control) [1]: 58.24%

Ac-RVASAIPLPIAH-NH2 [tigerinin-linear]
insulin release at 10^−5 M compared with tigerinin-1R [2]: lower insulin-releasing activity than tigerinin-1R | tR (min), retention time during reversed-phase HPLC (relative hydrophobicity) [3]: 11.590 min

Ac-RVCSAIPLPIKH-NH2 [[C11K]tigerinin-1R]
stability: RP-HPLC peak area of intact peptide after 60 min ([4]; 60 min): decreased dramatically | stability: RP-HPLC peak area of intact peptide at/within 120 min [4]: almost disappeared

CSAIPLPIC-amide (C–C) (disulfide) [tigerinin-cyclic, tigerinin-1R analog retaining only the cyclic moiety]
insulin release at 10^−5 M compared with tigerinin-1R [2]: decrease in insulin-releasing ability

RVCSAIPLPICH-amide (C–C) (disulfide) [tigerinin-1R, Arg–Val–Cys–Ser–Ala–Ile–Pro–Leu–Pro–Ile–Cys–His–NH2, cationic 12-mer peptide containing a disulfide bond, from frog skin secretions; parent peptide, synthesized here]
insulin secretion of INS-1 cells at different peptide concentrations ([2]; 10^−8 to 10^−5 M, 1 h in KRB buffer pH 7.4 at 37 °C, compared to 2.8 mM glucose alone, n = 3): concentration-dependent manner | plasma glucose concentrations after peptide alone ([5]; 75 nmol/kg peptide i.p. alone, without glucose injection): little change in plasma glucose concentrations | glucose tolerance / hypoglycemic ability (plasma glucose) ([5]; 75 nmol/kg peptide i.p. with glucose 18 mmol/kg, 15-120 min): improved glucose tolerance; also recorded: higher hypoglycemic ability than [C11K]tigerinin-1R | tR (min), retention time during reversed-phase HPLC (relative hydrophobicity) [3]: 19.465 min | antibacterial activity [6]: lacks antibacterial activity | insulin release and glucose tolerance in high-fat fed mice [7]: significantly enhanced insulin release and improved glucose tolerance | stability: RP-HPLC peak area of intact peptide at/within 120 min [4]: changed very little | concentration of intracellular Ca2+ (Fluo-3 fluorescence) [8]: produced an increase in the concentration of intracellular Ca^2+
